Assays:
[1] = biological target: T1, Estrogen receptor (Homo sapiens) (UniProt P03372); test: Agonist activity at ERalpha (301 to 553 amino acid residues) (unknown origin) assessed as induction of interaction with SRC1 after 24 hrs by yeast two-hybrid assay relative to isopaucifloral F
T1 sequence (whole entry): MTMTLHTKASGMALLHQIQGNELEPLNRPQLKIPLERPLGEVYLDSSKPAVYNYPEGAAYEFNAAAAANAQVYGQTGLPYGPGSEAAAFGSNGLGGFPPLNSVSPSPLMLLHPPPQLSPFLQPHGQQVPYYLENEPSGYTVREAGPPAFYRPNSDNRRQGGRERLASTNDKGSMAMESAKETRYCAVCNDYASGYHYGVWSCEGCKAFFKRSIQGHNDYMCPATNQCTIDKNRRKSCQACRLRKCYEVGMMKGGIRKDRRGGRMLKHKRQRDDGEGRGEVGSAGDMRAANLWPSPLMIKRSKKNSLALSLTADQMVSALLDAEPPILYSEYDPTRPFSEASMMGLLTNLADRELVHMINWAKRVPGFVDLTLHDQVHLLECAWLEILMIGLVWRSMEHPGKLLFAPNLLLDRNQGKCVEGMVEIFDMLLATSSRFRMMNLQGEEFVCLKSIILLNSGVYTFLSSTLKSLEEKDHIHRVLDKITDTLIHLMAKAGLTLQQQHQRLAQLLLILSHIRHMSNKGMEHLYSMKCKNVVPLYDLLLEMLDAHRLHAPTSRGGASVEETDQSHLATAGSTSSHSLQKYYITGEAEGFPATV

[2] = biological target: T1, Estrogen receptor (Homo sapiens); test: Antagonist activity at ERalpha (301 to 553 amino acid residues) (unknown origin) assessed as inhibition of E2 induced interaction with SRC1 after 24 hrs by yeast-two-hybrid assay; design: concentration or dose not given beside the values; scale not given: the % may be the effect or the level left
Estrogen receptor beta = Estrogen receptor beta (Homo sapiens, UniProt Q92731); test: Agonist activity at ERbeta (248 to 510 amino acid residues) (unknown origin) assessed as induction of interaction with SRC1 after 24 hrs by yeast two-hybrid assay
Rattus norvegicus [3] = test: Antiosteoporotic activity in ovariectomized Sprague-Dawley rat assessed as bone volume /tissue volume at 1 ug/kg, po qd at 6th week by micro-CT analysis (reference value: 41.33 +/- 5.04%); type: functional
Rattus norvegicus [4] = test: Antiosteoporotic activity in ovariectomized Sprague-Dawley rat assessed as bone volume /tissue volume at 1 ug/kg, po qd at 12th week by micro-CT analysis (reference value: 31.61 +/- 2.39%); type: functional
Rattus norvegicus [5] = test: Antiosteoporotic activity in ovariectomized Sprague-Dawley rat assessed as bone volume /tissue volume at 1 ug/kg, po qd at 18th week by micro-CT analysis (reference value: 27.36 +/- 1.99%); type: functional
Rattus norvegicus [6] = test: Antiosteoporotic activity in ovariectomized Sprague-Dawley rat assessed as trabecular thickness at 1 ug/kg, po qd at 6th week by micro-CT analysis (reference value: 0.086 +/- 0.0069 millimeter); type: functional, Trabecula
Rattus norvegicus [7] = test: Antiosteoporotic activity in ovariectomized Sprague-Dawley rat assessed as trabecular thickness at 1 ug/kg, po qd at 12th week by micro-CT analysis (reference value: 0.070 +/- 0.0063 millimeter); type: functional, Trabecula
Rattus norvegicus [8] = test: Antiosteoporotic activity in ovariectomized Sprague-Dawley rat assessed as trabecular thickness at 1 ug/kg, po qd at 18th week by micro-CT analysis (reference value: 0.103 +/- 0.0044 millimeter); type: functional, Trabecula
Rattus norvegicus [9] = test: Antiosteoporotic activity in ovariectomized Sprague-Dawley rat assessed as trabecular separation at 1 ug/kg, po qd at 6th week by micro-CT analysis (reference value: 0.116 +/- 0.010 millimeter); type: functional, Trabecula
Rattus norvegicus [10] = test: Antiosteoporotic activity in ovariectomized Sprague-Dawley rat assessed as trabecular separation at 1 ug/kg, po qd at 12th week by micro-CT analysis (reference value: 0.146 +/- 0.010 millimeter); type: functional, Trabecula
Rattus norvegicus [11] = test: Antiosteoporotic activity in ovariectomized Sprague-Dawley rat assessed as trabecular separation at 1 ug/kg, po qd at 18th week by micro-CT analysis (reference value: 0.234 +/- 0.021 millimeter); type: functional, Trabecula
Rattus norvegicus [12] = test: Antiosteoporotic activity in ovariectomized Sprague-Dawley rat assessed as serum osteocalcin level at 1 ug/kg, po qd at 12th week by enzyme immunoassay (reference value: 1055.8 +/- 14 ng/ml); type: functional
Rattus norvegicus [13] = test: Antiosteoporotic activity in ovariectomized Sprague-Dawley rat assessed as serum osteocalcin level at 1 ug/kg, po qd at 18th week by enzyme immunoassay (reference value: 1118.9 +/- 37.77 ng/ml); type: functional

Sequence of Estrogen receptor beta (Q92731 whole entry, the tested form may be a part): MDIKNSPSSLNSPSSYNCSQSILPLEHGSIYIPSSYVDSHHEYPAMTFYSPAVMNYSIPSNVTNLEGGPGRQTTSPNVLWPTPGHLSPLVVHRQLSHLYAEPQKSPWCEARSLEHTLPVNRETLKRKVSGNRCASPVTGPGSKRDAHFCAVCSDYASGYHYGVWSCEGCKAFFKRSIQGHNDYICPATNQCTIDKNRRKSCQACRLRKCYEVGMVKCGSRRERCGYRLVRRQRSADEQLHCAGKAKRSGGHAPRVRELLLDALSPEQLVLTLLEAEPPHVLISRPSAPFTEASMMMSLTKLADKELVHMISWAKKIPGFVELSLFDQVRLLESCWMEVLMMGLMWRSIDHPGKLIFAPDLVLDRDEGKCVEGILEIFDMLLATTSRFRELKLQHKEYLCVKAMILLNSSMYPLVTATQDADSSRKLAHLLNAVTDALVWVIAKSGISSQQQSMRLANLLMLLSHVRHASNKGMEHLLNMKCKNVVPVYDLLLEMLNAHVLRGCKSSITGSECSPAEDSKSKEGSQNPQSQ

Row | Compound | fold change (FC) [1] | Activity [2] [%] | other results
1 | Oc1ccc([C@@H]2c3c(O)cc(O)cc3[C@H]3[C@H](c4ccc(O)cc4)c4c(O)cc(O)cc4[C@@H]23)cc1 | 1.01 | 5.23 | –
2 | Oc1ccc([C@@H]2c3c(O)cc(O)cc3[C@H]3[C@H](c4ccc(F)cc4)c4c(O)cc(O)cc4[C@@H]23)cc1 | 0.95 | 0 | –
3 | Oc1ccc(CC2=C(c3cc(O)cc(O)c3)C(c3ccccc3)c3c(O)cc(O)cc32)cc1 (stereo not given) | 0.86 | 8.48 | –
4 | O=C1c2cc(O)cc(O)c2[C@@H](c2ccc(F)cc2)[C@@H]1c1cc(O)cc(O)c1 (relative stereo) | 0.94 | 7.61 | –
5 | Oc1ccc(C2C(c3cc(O)cc(O)c3)=C(Cc3ccc(Cl)cc3)c3cc(O)cc(O)c32)cc1 (stereo not given) | 0.88 | 15.2 | EC50 (Estrogen receptor beta): 45.8 µM
6 | Cc1ccc([C@@H]2c3c(O)cc(O)cc3[C@H]3[C@H](c4ccc(O)cc4)c4c(O)cc(O)cc4[C@@H]23)cc1 | 0.99 | 0 | EC50 (Estrogen receptor beta): 5.65 µM
7 | Oc1ccc([C@@H]2c3c(O)cc(O)cc3C(O)[C@H]2c2cc(O)cc(O)c2)cc1 (relative stereo) | 1.04 | 24.5 | –
8 | Oc1ccc(/C=C/c2cc(O)cc(O)c2)cc1 | 0.1 | 0 | –
9 | Oc1ccc(C2C(c3cc(O)cc(O)c3)=C(Cc3ccc(F)cc3)c3cc(O)cc(O)c32)cc1 (stereo not given) | 0.83 | 1.59 | –
10 | O=C1c2cc(O)cc(O)c2[C@@H](c2ccccc2)[C@@H]1c1cc(O)cc(O)c1 (relative stereo) | 0.97 | 7.59 | –
11 | Oc1ccc([C@@H]2c3c(O)cc(O)cc3[C@H]3[C@H](c4ccccc4)c4c(O)cc(O)cc4[C@@H]23)cc1 | 0.94 | 0.76 | –
12 | Oc1cc(O)c2c(c1)[C@H]1[C@H](c3ccccc3)c3c(O)cc(O)cc3[C@H]1[C@@H]2c1ccccc1 | 0.86 | 0 | –
13 | Oc1ccc(/C=C2/c3cc(O)cc(O)c3[C@@H](c3ccc(O)cc3)[C@@H]2c2cc(O)cc(O)c2)cc1 | 0.92 | 20.9 | –
14 | Oc1cc(O)cc(C2=C(Cc3ccccc3)c3cc(O)cc(O)c3C2c2ccccc2)c1 (stereo not given) | 0.88 | 0 | –
15 | Oc1ccc(C2C(c3cc(O)cc(O)c3)=C(Cc3ccccc3)c3cc(O)cc(O)c32)cc1 (stereo not given) | 0.98 | 2 | –
16 | Oc1ccc(CC2=C(c3cc(O)cc(O)c3)C(c3ccc(O)cc3)c3c(O)cc(O)cc32)cc1 (stereo not given) | 0.94 | 5.84 | –
17 | O=c1c(-c2ccc(O)cc2)coc2cc(O)cc(O)c12 [GENISTEIN] | – | – | Activity (Rattus norvegicus [3]): 40.5%; Activity (Rattus norvegicus [4]): 40.62%; Activity (Rattus norvegicus [5]): 41.62%; Activity (Rattus norvegicus [6]): 0.084 mm; Activity (Rattus norvegicus [7]): 0.079 mm; Activity (Rattus norvegicus [8]): 0.102 mm; Activity (Rattus norvegicus [9]): 0.125 mm; Activity (Rattus norvegicus [10]): 0.134 mm; Activity (Rattus norvegicus [11]): 0.157 mm; Activity (Rattus norvegicus [12]): 954.33 ng/mL; Activity (Rattus norvegicus [13]): 882.76 ng/mL
